Laboratory results from PMC6120666 (The EMBO Journal, 2018).

Key:
Test in all cases: Drug affinity chromatography with c-ponatinib and LC-MS/MS (ponatinib interactome)
Type in all cases: binding
[1] = molecular target: T1, proteins of U2OS cell lysate (Homo sapiens, UniProt P08238); conditions: HSP90AB1, Heat shock protein HSP 90-beta
T1 construct: Proteins enriched by c-ponatinib from U2OS cell lysate; endogenous in cells; host or cells: U2OS cell lysate
In short: (§1)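 U2OS cell lysate in NP-40 lysis buffer (2 mg protein per pulldown) was incubated with amine-derivatized NHS beads for 2 h at 4 °C. Bound proteins were washed, eluted with 100 mM formic acid, reduced, alkylated and trypsin-digested, then identified by nano-UPLC–MS/MS on Orbitrap instruments with a 60 min gradient.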

[2] = molecular target: T2, proteins of U2OS cell lysate (Homo sapiens, UniProt P23246); conditions: SFPQ, Splicing factor, proline- and glutamine-rich
T2 construct: Proteins enriched by c-ponatinib from U2OS cell lysate; endogenous in cells; host or cells: U2OS cell lysate
In short: as §1

[3] = molecular target: T3, proteins of U2OS cell lysate (Homo sapiens, UniProt P29323); conditions: EPHB2, Ephrin type-B receptor 2
T3 construct: Proteins enriched by c-ponatinib from U2OS cell lysate; endogenous in cells; host or cells: U2OS cell lysate
In short: as §1

[4] = molecular target: T4, proteins of U2OS cell lysate (Homo sapiens, UniProt P42684); conditions: ABL2, Abelson tyrosine-protein kinase 2
T4 construct: Proteins enriched by c-ponatinib from U2OS cell lysate; endogenous in cells; host or cells: U2OS cell lysate
In short: as §1

[5] = molecular target: T5, proteins of U2OS cell lysate (Homo sapiens, UniProt P49207); conditions: RPL34, 60S ribosomal protein L34
T5 construct: Proteins enriched by c-ponatinib from U2OS cell lysate; endogenous in cells; host or cells: U2OS cell lysate
In short: as §1

[6] = molecular target: T6, proteins of U2OS cell lysate (Homo sapiens, UniProt P55084); conditions: HADHB, Trifunctional enzyme subunit beta, mitochondrial
T6 construct: Proteins enriched by c-ponatinib from U2OS cell lysate; endogenous in cells; host or cells: U2OS cell lysate
In short: as §1

[7] = molecular target: T7, proteins of U2OS cell lysate (Homo sapiens, UniProt P61026); conditions: RAB10, Ras-related protein Rab-10
T7 construct: Proteins enriched by c-ponatinib from U2OS cell lysate; endogenous in cells; host or cells: U2OS cell lysate
In short: as §1

[8] = molecular target: T8, proteins of U2OS cell lysate (Homo sapiens, UniProt P62191); conditions: PSMC1, 26S protease regulatory subunit 4
T8 construct: Proteins enriched by c-ponatinib from U2OS cell lysate; endogenous in cells; host or cells: U2OS cell lysate
In short: as §1

[9] = molecular target: T9, proteins of U2OS cell lysate (Homo sapiens, UniProt P62851); conditions: RPS25, 40S ribosomal protein S25
T9 construct: Proteins enriched by c-ponatinib from U2OS cell lysate; endogenous in cells; host or cells: U2OS cell lysate
In short: as §1

[10] = molecular target: T10, proteins of U2OS cell lysate (Homo sapiens, UniProt P68363); conditions: TUBA1B;TUBA1A, Tubulin alpha-1B chain
T10 construct: Proteins enriched by c-ponatinib from U2OS cell lysate; endogenous in cells; host or cells: U2OS cell lysate
In short: as §1

[11] = molecular target: T11, proteins of U2OS cell lysate (Homo sapiens, UniProt P68371); conditions: TUBB4B;TUBB8, Tubulin beta-4B chain
T11 construct: Proteins enriched by c-ponatinib from U2OS cell lysate; endogenous in cells; host or cells: U2OS cell lysate
In short: as §1

[12] = molecular target: T12, proteins of U2OS cell lysate (Homo sapiens, UniProt Q13561); conditions: DCTN2, Dynactin subunit 2
T12 construct: Proteins enriched by c-ponatinib from U2OS cell lysate; endogenous in cells; host or cells: U2OS cell lysate
In short: as §1

[13] = molecular target: T13, proteins of U2OS cell lysate (Homo sapiens, UniProt Q13813); conditions: SPTAN1, Spectrin alpha chain, non-erythrocytic 1
T13 construct: Proteins enriched by c-ponatinib from U2OS cell lysate; endogenous in cells; host or cells: U2OS cell lysate
In short: as §1

[14] = molecular target: T14, proteins of U2OS cell lysate (Homo sapiens, UniProt Q14498); conditions: RBM39, RNA-binding protein 39
T14 construct: Proteins enriched by c-ponatinib from U2OS cell lysate; endogenous in cells; host or cells: U2OS cell lysate
In short: as §1

[15] = molecular target: T15, proteins of U2OS cell lysate (Homo sapiens, UniProt Q15750); conditions: TAB1, TGF-beta-activated kinase 1 and MAP3K7-binding protein 1
T15 construct: Proteins enriched by c-ponatinib from U2OS cell lysate; endogenous in cells; host or cells: U2OS cell lysate
In short: as §1

[16] = molecular target: T16, proteins of U2OS cell lysate (Homo sapiens, UniProt Q9BSJ8); conditions: ESYT1, Extended synaptotagmin-1
T16 construct: Proteins enriched by c-ponatinib from U2OS cell lysate; endogenous in cells; host or cells: U2OS cell lysate
In short: as §1

[17] = molecular target: T17, proteins of U2OS cell lysate (Homo sapiens, UniProt Q9H2K8); conditions: TAOK3;TAOK1;TAOK2, Serine/threonine-protein kinase TAO3
T17 construct: Proteins enriched by c-ponatinib from U2OS cell lysate; endogenous in cells; host or cells: U2OS cell lysate
In short: as §1

[18] = molecular target: T18, proteins of U2OS cell lysate (Homo sapiens, UniProt Q9P0K7); conditions: RAI14, Ankycorbin
T18 construct: Proteins enriched by c-ponatinib from U2OS cell lysate; endogenous in cells; host or cells: U2OS cell lysate
In short: as §1

[19] = molecular target: T19, proteins of U2OS cell lysate (Homo sapiens, UniProt Q9UHD8); conditions: SEPT9, Septin-9
T19 construct: Proteins enriched by c-ponatinib from U2OS cell lysate; endogenous in cells; host or cells: U2OS cell lysate
In short: as §1

T10 sequence (P68363 whole entry): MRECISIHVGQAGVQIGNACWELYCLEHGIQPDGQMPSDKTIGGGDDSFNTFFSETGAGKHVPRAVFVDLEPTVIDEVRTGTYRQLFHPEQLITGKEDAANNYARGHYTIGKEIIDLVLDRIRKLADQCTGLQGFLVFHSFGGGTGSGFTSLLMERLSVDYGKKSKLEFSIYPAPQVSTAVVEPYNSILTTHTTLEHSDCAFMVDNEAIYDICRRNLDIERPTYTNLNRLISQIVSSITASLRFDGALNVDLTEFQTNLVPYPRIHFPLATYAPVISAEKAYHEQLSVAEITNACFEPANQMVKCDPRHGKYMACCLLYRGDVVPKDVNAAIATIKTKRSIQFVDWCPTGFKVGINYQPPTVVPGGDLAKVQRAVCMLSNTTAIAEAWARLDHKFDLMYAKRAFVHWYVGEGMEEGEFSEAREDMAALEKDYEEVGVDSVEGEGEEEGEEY
T15 sequence (Q15750 whole entry): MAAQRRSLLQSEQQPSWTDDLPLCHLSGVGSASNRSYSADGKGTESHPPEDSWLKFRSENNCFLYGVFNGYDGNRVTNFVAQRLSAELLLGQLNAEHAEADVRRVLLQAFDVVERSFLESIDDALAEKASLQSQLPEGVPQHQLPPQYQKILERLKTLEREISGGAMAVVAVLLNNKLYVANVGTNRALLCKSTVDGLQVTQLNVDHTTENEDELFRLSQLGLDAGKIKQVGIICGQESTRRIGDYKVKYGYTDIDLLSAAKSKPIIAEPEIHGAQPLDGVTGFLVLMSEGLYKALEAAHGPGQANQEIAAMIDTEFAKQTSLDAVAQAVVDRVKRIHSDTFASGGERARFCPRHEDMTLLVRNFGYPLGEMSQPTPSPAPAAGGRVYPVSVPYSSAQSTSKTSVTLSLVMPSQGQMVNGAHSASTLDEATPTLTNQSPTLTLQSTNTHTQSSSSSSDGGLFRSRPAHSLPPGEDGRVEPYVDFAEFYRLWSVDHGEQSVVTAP
T1 sequence (P08238 whole entry): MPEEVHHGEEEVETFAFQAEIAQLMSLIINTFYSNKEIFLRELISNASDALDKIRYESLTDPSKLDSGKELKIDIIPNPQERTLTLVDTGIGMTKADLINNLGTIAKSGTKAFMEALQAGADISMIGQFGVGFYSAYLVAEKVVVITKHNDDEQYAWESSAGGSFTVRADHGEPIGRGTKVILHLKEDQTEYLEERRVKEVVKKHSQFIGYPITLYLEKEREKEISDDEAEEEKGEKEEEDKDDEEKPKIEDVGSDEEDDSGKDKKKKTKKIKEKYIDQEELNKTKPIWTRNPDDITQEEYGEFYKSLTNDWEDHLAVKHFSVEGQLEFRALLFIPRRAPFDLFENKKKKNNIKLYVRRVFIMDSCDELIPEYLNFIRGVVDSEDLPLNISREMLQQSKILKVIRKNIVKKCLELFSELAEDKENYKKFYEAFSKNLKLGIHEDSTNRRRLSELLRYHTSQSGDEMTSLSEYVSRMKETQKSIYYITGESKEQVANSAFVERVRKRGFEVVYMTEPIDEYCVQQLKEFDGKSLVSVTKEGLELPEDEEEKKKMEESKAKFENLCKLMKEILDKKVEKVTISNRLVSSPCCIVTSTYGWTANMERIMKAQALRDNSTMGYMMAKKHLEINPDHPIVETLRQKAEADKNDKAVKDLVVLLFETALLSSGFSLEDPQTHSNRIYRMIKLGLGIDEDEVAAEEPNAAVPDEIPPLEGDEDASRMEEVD
T2 sequence (P23246 whole entry): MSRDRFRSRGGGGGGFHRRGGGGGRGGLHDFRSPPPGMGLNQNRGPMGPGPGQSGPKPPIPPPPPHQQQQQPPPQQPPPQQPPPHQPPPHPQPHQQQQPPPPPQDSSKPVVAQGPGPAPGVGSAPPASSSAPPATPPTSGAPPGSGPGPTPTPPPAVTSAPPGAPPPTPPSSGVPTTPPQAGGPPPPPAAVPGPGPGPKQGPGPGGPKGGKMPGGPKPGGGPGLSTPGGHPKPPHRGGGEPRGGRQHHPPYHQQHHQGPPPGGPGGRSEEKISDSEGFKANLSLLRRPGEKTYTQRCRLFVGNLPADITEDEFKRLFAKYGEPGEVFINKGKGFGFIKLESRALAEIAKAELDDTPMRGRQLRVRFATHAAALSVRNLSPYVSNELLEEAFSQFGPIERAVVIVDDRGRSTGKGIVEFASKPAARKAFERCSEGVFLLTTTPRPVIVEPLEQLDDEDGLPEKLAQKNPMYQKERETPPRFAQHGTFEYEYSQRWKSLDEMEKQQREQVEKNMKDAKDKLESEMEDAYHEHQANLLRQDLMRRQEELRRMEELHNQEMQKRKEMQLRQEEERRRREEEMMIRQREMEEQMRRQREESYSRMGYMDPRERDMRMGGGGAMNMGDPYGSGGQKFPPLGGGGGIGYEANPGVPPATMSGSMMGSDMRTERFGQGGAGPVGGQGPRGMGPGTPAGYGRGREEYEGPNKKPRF
T17 sequence (Q9H2K8 whole entry): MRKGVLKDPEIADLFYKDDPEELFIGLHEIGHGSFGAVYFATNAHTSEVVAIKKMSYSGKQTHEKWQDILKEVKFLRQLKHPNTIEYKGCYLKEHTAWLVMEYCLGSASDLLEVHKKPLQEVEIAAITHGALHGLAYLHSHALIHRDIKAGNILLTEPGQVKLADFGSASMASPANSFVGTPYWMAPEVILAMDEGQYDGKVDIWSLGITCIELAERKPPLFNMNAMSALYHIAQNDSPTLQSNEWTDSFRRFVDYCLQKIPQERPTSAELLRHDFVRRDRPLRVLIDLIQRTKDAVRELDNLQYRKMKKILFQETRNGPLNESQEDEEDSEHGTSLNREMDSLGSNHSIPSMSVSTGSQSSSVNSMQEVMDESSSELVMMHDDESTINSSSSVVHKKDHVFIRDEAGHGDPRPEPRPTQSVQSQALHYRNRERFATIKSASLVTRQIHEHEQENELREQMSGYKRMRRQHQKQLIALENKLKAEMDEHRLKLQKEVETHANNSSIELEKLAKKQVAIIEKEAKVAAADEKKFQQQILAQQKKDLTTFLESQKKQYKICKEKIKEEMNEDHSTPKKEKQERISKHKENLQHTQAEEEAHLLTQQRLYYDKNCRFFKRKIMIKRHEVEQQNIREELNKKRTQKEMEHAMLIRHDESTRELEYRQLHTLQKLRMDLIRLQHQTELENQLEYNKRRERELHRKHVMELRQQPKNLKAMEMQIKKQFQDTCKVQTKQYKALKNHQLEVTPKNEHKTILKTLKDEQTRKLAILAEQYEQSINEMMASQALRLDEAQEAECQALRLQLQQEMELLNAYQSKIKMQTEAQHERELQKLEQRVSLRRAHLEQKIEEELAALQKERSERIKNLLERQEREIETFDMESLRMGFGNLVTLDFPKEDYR
T7 sequence (P61026 whole entry): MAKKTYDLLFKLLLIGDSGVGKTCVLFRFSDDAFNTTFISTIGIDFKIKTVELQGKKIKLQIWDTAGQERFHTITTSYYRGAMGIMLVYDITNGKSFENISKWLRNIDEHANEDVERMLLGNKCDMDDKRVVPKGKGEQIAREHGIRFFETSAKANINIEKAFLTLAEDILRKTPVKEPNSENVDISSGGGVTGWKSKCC
T3 sequence (P29323 19-1055): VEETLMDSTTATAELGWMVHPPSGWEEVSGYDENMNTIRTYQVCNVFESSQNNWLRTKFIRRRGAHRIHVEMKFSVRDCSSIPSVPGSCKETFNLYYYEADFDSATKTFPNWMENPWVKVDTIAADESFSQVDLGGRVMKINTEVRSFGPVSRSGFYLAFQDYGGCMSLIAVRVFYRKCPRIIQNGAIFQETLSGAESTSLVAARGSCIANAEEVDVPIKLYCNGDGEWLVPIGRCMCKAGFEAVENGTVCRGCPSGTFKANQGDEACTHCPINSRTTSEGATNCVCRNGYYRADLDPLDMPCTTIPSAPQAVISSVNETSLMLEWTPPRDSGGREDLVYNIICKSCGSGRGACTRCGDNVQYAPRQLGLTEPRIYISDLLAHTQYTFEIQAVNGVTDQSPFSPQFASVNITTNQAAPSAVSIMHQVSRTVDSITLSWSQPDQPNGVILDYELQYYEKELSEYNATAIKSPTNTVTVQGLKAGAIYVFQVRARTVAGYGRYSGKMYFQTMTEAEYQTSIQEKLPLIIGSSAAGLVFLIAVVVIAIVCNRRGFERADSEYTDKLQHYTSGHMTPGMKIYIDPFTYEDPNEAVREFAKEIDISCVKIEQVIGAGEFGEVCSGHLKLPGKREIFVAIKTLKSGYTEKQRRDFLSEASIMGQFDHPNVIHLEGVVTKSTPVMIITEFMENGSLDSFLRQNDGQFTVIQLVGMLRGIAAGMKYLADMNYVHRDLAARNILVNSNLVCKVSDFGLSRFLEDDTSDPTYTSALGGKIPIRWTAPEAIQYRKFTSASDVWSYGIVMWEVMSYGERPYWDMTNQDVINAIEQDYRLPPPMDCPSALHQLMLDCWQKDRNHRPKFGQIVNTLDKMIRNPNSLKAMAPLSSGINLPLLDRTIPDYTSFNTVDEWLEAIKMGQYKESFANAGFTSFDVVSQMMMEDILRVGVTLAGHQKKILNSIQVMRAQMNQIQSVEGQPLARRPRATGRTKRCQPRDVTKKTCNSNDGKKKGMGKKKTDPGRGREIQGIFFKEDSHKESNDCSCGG
T8 sequence (P62191 whole entry): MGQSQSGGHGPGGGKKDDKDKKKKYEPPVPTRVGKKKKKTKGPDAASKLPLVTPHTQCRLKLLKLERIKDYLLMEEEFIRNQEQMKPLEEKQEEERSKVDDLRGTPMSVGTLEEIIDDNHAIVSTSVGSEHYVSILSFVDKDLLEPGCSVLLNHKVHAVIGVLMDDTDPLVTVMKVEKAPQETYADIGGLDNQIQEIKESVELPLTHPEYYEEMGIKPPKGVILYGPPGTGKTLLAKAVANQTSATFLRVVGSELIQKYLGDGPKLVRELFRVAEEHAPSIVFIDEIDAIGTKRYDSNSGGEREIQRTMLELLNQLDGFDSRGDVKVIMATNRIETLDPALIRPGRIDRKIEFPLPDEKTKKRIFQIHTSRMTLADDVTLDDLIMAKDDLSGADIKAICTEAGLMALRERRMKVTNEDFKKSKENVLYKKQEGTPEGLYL

Cc1ccc(C(=O)Nc2ccc(CN3CCN(C)CC3)c(C(F)(F)F)c2)cc1C#Cc1cnc2cccnn12 [PON]
Average LFQ PON_WT [1]: 24.5074
Average LFQ PON_WT [2]: 20.8702
Average LFQ PON_WT [3]: 23.9034
Average LFQ PON_WT [4]: 26.1742
Average LFQ PON_WT [5]: 21.0301
Average LFQ PON_WT [6]: 23.6834
Average LFQ PON_WT [7]: 19.7729
Average LFQ PON_WT [8]: 23.3461
Average LFQ PON_WT [9]: 23.6854
Average LFQ PON_WT [10]: 27.3228
Average LFQ PON_WT [11]: 26.1041
Average LFQ PON_WT [12]: 23.2725
Average LFQ PON_WT [13]: 24.813
Average LFQ PON_WT [14]: 20.4989
Average LFQ PON_WT [15]: 26.3342
Average LFQ PON_WT [16]: 18.8901
Average LFQ PON_WT [17]: 21.1056
Average LFQ PON_WT [18]: 19.7116
Average LFQ PON_WT [19]: 23.3795
